The test deals with HBV. As to the kind of experiment: HBV replication inhibition assay (BDNA assay) in HepG2.2.15 cells. The settings on record: Hepatitis B virus, 144 h, 6 days incubation, encapsidated HBV DNA in supernatant by branched DNA QuantiGene assay. Format: cell-based. The procedure: HBV Replication Inhibition Assay
HBV replication inhibition by the disclosed compounds were determined in cells infected or transfected with HBV or cells with stably integrated HBV, such as HepG2.2.15 cells (Sells et al. 1987). In this example, HepG2.2.15 cells were maintained in cell culture medium containing 10% fetal bovine serum (FBS), Geneticin, L-glutamine, penicillin and streptomycin. HepG2.2.15 cells were seeded in 96-well plates at a density of 40,000 cells/well and were treated with serially diluted compounds at a final DMSO concentration of 0.5% either alone or in combination by adding drugs in a checker box format. Cells were incubated with compounds for three days, after which medium was removed and fresh medium containing compounds was added to cells and incubated for another three days. At day 6, supernatant was removed and treated with DNase at 37° C. for 60 minutes, followed by enzyme inactivation at 75° C. for 15 minutes. Encapsidated HBV DNA was released from the virions and covalently linked HBV polymerase by incubating in lysis buffer (Affymetrix QS0010) containing 2.5 μg proteinase K at 50° C. for 40 minutes. HBV DNA was denatured by addition of 0.2 M NaOH and detected using a branched DNA (BDNA) QuantiGene assay kit according to manufacturer recommendation (Affymetrix). HBV DNA levels were also quantified using qPCR, based on amplification of encapsidated HBV DNA extraction with QuickExtraction Solution (Epicentre Biotechnologies) and amplification of HBV DNA using HBV specific PCR probes that can hybridize to HBV DNA and a fluorescently labeled probe for quantitation. In addition, cell viability of HepG2.2.15 cells incubated with test compounds alone or in combination was determined by using CellTitre-Glo reagent according to the manufacturer protocol (Promega). The mean background signal from wells containing only culture medium was subtracted from all other samples, and percent inhibition at each compound concentration was calculated by normalizing to signals from HepG2.2.15 cells treated with 0.5% DMSO using equation E1.
% inhibition (DMSOave−Xi)DMSOave×100% E1:
where DMSOave is the mean signal calculated from the wells that were treated with DMSO control (0% inhibition control) and X^1 is the signal measured from the individual wells. EC50 values, effective concentrations that achieved 50% inhibitory effect, were determined by non-linear fitting using Graphpad Prism software (San Diego, Calif.) and equation E2.
Y=Ymin+(Ymax−Ymin)/(1+10(Log EC50−X)×HillSlope) E2:
where Y represents percent inhibition values and X represents the logarithm of compound concentrations.
Selected disclosed compounds were assayed in the HBV replication assay (BDNA assay), as described above, and a representative group of these active compounds is shown in Table 3. […] In Table 3, “A” represents 1 nM<EC50≤100 nM; “B” represents 100 nM<EC50≤1,000 nM; and “C” represents 1,000 nM<EC50≤10,000 nM.
As for `C[C@H]1Cc2noc(-c3ncccn3)c2CN1C(=O)Nc1ccc(F)c(C(F)(F)F)c1` [Example 3, (S)—N-(4-Fluoro-3-(trifluoromethyl)phenyl)-6-methyl-3-(pyrimidin-2-yl)-6,7-dihydroisoxazolo[4,3-c]pyridine-5(4H)-carboxamide], the concentration for a half-maximal effect (EC50) (as a rule, the concentration that produces a half-maximal response) is 1 to 100 nM.

Take `CC1(C)CN(C(=O)Nc2ccc(F)c(C#N)c2)Cc2c(-c3ncccn3)noc21` [Example 13, N-(3-Cyano-4-fluorophenyl)-7,7-dimethyl-3-(pyrimidin-2-yl)-6,7-dihydroisoxazolo[4,5-c]pyridine-5(4H)-carboxamide]: the EC50 is 100 to 1000 nM.

In the case of `C[C@H]1Cc2noc(-c3ncccn3)c2CN1C(=O)Nc1ccnc(Br)c1F` [Example 4, (S)—N-(2-Bromo-3-fluoropyridin-4-yl)-6-methyl-3-(pyrimidin-2-yl)-6,7-dihydroisoxazolo[4,3-c]pyridine-5(4H)-carboxamide], the EC50 was in the range of 1 to 100 nM.

On to `C[C@H]1Cc2onc(-c3ncccn3)c2CN1C(=O)Nc1ccc(F)c(C#N)c1` [Example 5, (S)—N-(3-Cyano-4-fluorophenyl)-6-methyl-3-(pyrimidin-2-yl)-6,7-dihydroisoxazolo[4,5-c]pyridine-5(4H)-carboxamide], for which the concentration giving a half-maximal response (EC50) fell in the range of 1 to 100 nM.

For `CC1(C)CN(C(=O)Nc2ccc(F)c(C#N)c2)Cc2c1noc2-c1ncccn1` [Example 9, N-(3-Cyano-4-fluorophenyl)-7,7-dimethyl-3-(pyrimidin-2-yl)-6,7-dihydroisoxazolo[4,3-c]pyridine-5(4H)-carboxamide], the half-maximal effective concentration (EC50) lay in the range of 1 to 100 nM.

Take `C[C@H]1Cc2onc(-c3ncccn3)c2CN1C(=O)Nc1ccnc(Br)c1F` [Example 8, (S)—N-(2-Bromo-3-fluoropyridin-4-yl)-6-methyl-3-(pyrimidin-2-yl)-6,7-dihydroisoxazolo[4,5-c]pyridine-5(4H)-carboxamide]: the half-maximal effective concentration (EC50) was 100 to 1000 nM.

On to `C[C@H]1Cc2noc(-c3ncccn3)c2CN1C(=O)Nc1ccnc(C(F)F)c1F` [Example 2, (S)—N-(2-(Difluoromethyl)-3-fluoropyridin-4-yl)-6-methyl-3-(pyrimidin-2-yl)-6,7-dihydroisoxazolo[4,3-c]pyridine-5(4H)-carboxamide], for which the EC50 lay in the range of 1 to 100 nM.

Take `CC1(C)CN(C(=O)Nc2ccnc(C(F)F)c2F)Cc2c1noc2-c1ncccn1` [Example 11, N-(2-(Difluoromethyl)-3-fluoropyridin-4-yl)-7,7-dimethyl-3-(pyrimidin-2-yl)-6,7-dihydroisoxazolo[4,3-c]pyridine-5(4H)-carboxamide]: the EC50 was 100 to 1000 nM.

As for `C[C@H]1Cc2noc(-c3ncccn3)c2CN1C(=O)Nc1ccc(F)c(C#N)c1` [Example 1, (S)—N-(3-Cyano-4-fluorophenyl)-6-methyl-3-(pyrimidin-2-yl)-6,7-dihydroisoxazolo[4,3-c]pyridine-5(4H)-carboxamide], the concentration giving a half-maximal response (EC50) is 1 to 100 nM.

On to `CC1(C)CN(C(=O)Nc2ccnc(Br)c2F)Cc2c1noc2-c1ncccn1` [Example 12, N-(2-Bromo-3-fluoropyridin-4-yl)-7,7-dimethyl-3-(pyrimidin-2-yl)-6,7-dihydroisoxazolo[4,3-c]pyridine-5(4H)-carboxamide], for which the EC50 was 1 to 100 nM.

Regarding `C[C@H]1Cc2onc(-c3ncccn3)c2CN1C(=O)Nc1ccc(F)c(C(F)(F)F)c1` [Example 7, (S)—N-(4-Fluoro-3-(trifluoromethyl)phenyl)-6-methyl-3-(pyrimidin-2-yl)-6,7-dihydroisoxazolo[4,5-c]pyridine-5(4H)-carboxamide], the EC50 was 100 to 1000 nM.

With `CC1(C)CN(C(=O)Nc2ccc(F)c(C(F)(F)F)c2)Cc2c(-c3ncccn3)noc21` [Example 14, N-(4-Fluoro-3-(trifluoromethyl)phenyl)-7,7-dimethyl-3-(pyrimidin-2-yl)-6,7-dihydroisoxazolo[4,5-c]pyridine-5(4H)-carboxamide], the half-maximal effective concentration (EC50) was 1000 to 10000 nM.

On to `CC1(C)CN(C(=O)Nc2ccnc(Br)c2F)Cc2c(-c3ncccn3)noc21` [Example 16, N-(2-Bromo-3-fluoropyridin-4-yl)-7,7-dimethyl-3-(pyrimidin-2-yl)-6,7-dihydroisoxazolo[4,5-c]pyridine-5(4H)-carboxamide], for which the concentration for a half-maximal effect (EC50) was 1 to 100 nM.

Regarding `C[C@H]1Cc2onc(-c3ncccn3)c2CN1C(=O)Nc1ccnc(C(F)F)c1F` [Example 6, (S)—N-(2-(Difluoromethyl)-3-fluoropyridin-4-yl)-6-methyl-3-(pyrimidin-2-yl)-6,7-dihydroisoxazolo[4,5-c]pyridine-5(4H)-carboxamide], the concentration for a half-maximal effect (EC50) lay in the range of 1 to 100 nM.

With `CC1(C)CN(C(=O)Nc2ccc(F)c(C(F)(F)F)c2)Cc2c1noc2-c1ncccn1` [Example 10, N-(4-Fluoro-3-(trifluoromethyl)phenyl)-7,7-dimethyl-3-(pyrimidin-2-yl)-6,7-dihydroisoxazolo[4,3-c]pyridine-5(4H)-carboxamide], the concentration giving a half-maximal response (EC50) was 100 to 1000 nM.

Regarding `CC1(C)CN(C(=O)Nc2ccnc(C(F)F)c2F)Cc2c(-c3ncccn3)noc21` [Example 15, N-(2-(Difluoromethyl)-3-fluoropyridin-4-yl)-7,7-dimethyl-3-(pyrimidin-2-yl)-6,7-dihydroisoxazolo[4,5-c]pyridine-5(4H)-carboxamide], the EC50 was 100 to 1000 nM.

The values are drawn from patent US20220135590A1, “ISOXAZOLE COMPOUNDS FOR THE TREATMENT OF DISEASES ASSOCIATED WITH HBV INFECTIONS” (Janssen Science Ireland Unlimited Company, priority 2017, published 2022).
